Patent publication US20080004290A1, “Anti-Cancer Agents” (THE UNIVERSITY OF QUEENSLAND, priority 2003, published 2008)
Like-named read-outs stand apart in the source and are kept apart here.

Tests used:
[1] = system: NFF, neonatal foreskin fibroblasts; assay: Cell survival assay (clonogenic survival, SRB), normal cells; assay type: cell-based, human; conditions: SRB
Description: (§1) The cytotoxicities of the compounds of the invention were determined by clonogenic survival of human cancer cells (MM96L, melanoma) and human normal cells (NFF, neonatal foreskin fibroblasts). Cells were incubated with the compounds at various concentrations of compound (0.01-10 μg/mL) for 24 hours, washed, and then grown for a further four days in the absence of hydroxamic acid before determining cell survival by cell count. The final readout involved staining with sulforhodamine B (SRB), a cost-effective method amenable to automation and high throughput analysis. At the technical level, “cell sensitivity” is often inferred from short term (1-2 day) observations such as apoptosis, which may not be a satisfactory model of clonogenic survival.
(§2) Cell Lines and Culture Medium. All cell lines used in this study have been described previously (Parsons et al., 1986; Todaro et al., 1980; Glenn et al., 2004). All cell lines were cultured in 10% heat-inactivated foetal calf serum (CSL, Australia) in RPMI 1640 medium supplemented with 100 U/mL penicillin, 100 μg/mL streptomycin, and 3 mM HEPES at 5% CO2, 99% humidity at 37° C. Primary human fibroblasts were obtained from neonatal foreskins and cultured in the above medium. Routine mycoplasma tests were performed using Hoechst stain^i and were always negative.
(§3) Cell Survival Assay. Cells were plated into 96-well microtitre plates at 5×10^3 cells/well, and allowed to adhere overnight. Test compounds were added to culture medium at the indicated concentrations, and plates incubated in the above conditions for 24 hours. Following this incubation period, compounds and media were removed, and replaced with fresh culture medium. Cells were then grown for a further 72 hours before assay using sulforhodamine B (SRB; Sigma, St. Louis, Mo.) as previously described. Briefly, the culture medium was removed from the 96-well microtitre plates and the plates washed twice with phosphate buffered saline (PBS), before the cells were fixed with methylated spirits for 15 minutes. The plates were then rinsed with tap water and the fixed cells stained with 50 μL/well of SRB solution (0.4% sulforhodamine B (w/v) in 1% (v/v) acetic acid) over a period of 1 hour. The SRB solution was then removed from the wells and the plates rapidly washed two times with 1% (v/v) acetic acid. Protein bound dye was then solubilised with the addition of 100 μL of 10 mM unbuffered Tris, and incubated for 15 min at 25° C. Plates were then read at 564 nm on a VERSA max tunable microplate reader (Molecular Devices, Sunnyvale, Calif.).

MM96L melanoma cells = assay: Cell survival assay (clonogenic survival, SRB); assay type: cell-based, human; conditions: for SI (Selectivity Index = IC50 (NFF)/IC50 (MM96L)): NFF vs MM96L
Description: as §1, §2, §3

[2] = Homo sapiens, Fibroblast, NFF normal fibroblasts, 24 h with compound, further 72 h growth, read-out: IC50 (uM) NFF
[3] = Homo sapiens, MM96L, MM96L melanoma, 24 h with compound, further 72 h growth, SRB, read-out: IC50 (uM) MM96L
[4] = Homo sapiens, MM96L, most preferred compounds, exemplary examples, read-out: potency of IC50 against the MM96 melanoma cells
[5] = Table 5, 24 hours with compound, further growth, read-out: IC50 NFF
[6] = Table 5, 24 hours with compound, further growth, SRB, read-out: IC50 MM96L
[7] = Table 5, Selectivity Index = IC50 (NFF)/IC50 (MM96L)
[8] = Table 8, 24 hours with compound, further growth, read-out: IC50 (μM) NFF
[9] = Table 8, 24 hours with compound, further growth, SRB, read-out: IC50 (μM) MM96
[10] = Table 8, IC50 (NFF)/IC50 (MM96L)
[11] = NFF normal fibroblasts, 24 h with compound, further 72 h growth, read-out: IC50 (uM) NFF
[12] = MM96L melanoma, 24 h with compound, further 72 h growth, SRB, read-out: IC50 (uM) MM96L
[13] = Homo sapiens, Fibroblast, 24 h, Table 6, 24 hours with compound, further growth, read-out: IC50 (μM) NFF
[14] = Homo sapiens, MM96L, 24 h, Table 6, 24 hours with compound, further growth, SRB, read-out: IC50 (μM) MM96L
[15] = Table 6, IC50 (NFF)/IC50 (MM96L)

O=C(CCCCC[C@H](NC(=O)Cc1c[nH]c2ccccc12)C(=O)NCc1ccccc1)NO [Example 162]
IC50 [1, 2]: > 2.22 µM
IC50 (MM96L melanoma cells; [3]): 0.332 µM
IC50 (MM96L melanoma cells; [4]): ≤ 0.5 µM
SI (Selectivity Index = IC50 (NFF)/IC50 (MM96L)) (MM96L melanoma cells): >7

O=C(CCCSC[C@H](NC(=O)c1cccc(O)c1O)C(=O)NCc1ccccc1)NO [Example 31]
IC50 [1, 5]: 4.5 ± 0.6 µM
IC50 (MM96L melanoma cells; [6]): 32 ± 3 µM
Selectivity (MM96L melanoma cells; [7]): 0.14

CN(C)c1ccc(C(=O)N[C@@H](CSCCCC(=O)NO)C(=O)NCc2ccc(C(=O)NCCCCCCO)cc2)cc1 [Example 105]
IC50 [1, 8]: 17 µM
IC50 (MM96L melanoma cells; [9]): 4.26 µM
Selectivity (MM96L melanoma cells; [10]): 4.0

O=C(CCCCC[C@H](NC(=O)OCc1ccccc1)C(=O)NCc1ccccc1)NO [Example 154]
IC50 [1, 2]: 1.52 µM
IC50 (MM96L melanoma cells; [3]): 1.52 µM
SI (Selectivity Index = IC50 (NFF)/IC50 (MM96L)) (MM96L melanoma cells): 1

O=C(/C=C/c1c[nH]c2ccccc12)N[C@@H](CCCCCC(=O)NO)C(=O)NCc1ccccc1 [Example 167]
IC50 [1, 2]: 10.4 µM
IC50 (MM96L melanoma cells; [3]): 3.24 µM
SI (Selectivity Index = IC50 (NFF)/IC50 (MM96L)) (MM96L melanoma cells): 3.2

O=C(CCCSC[C@H](NC(=O)c1cccc2ccccc12)C(=O)NCc1ccccc1)NO [Example 37]
IC50 [1, 5]: 5.3 ± 0.6 µM
IC50 (MM96L melanoma cells; [6]): 6.3 ± 0.6 µM
Selectivity (MM96L melanoma cells; [7]): 0.8

Cc1cc(C)cc(C(=O)N[C@@H](CSCCCC(=O)NO)C(=O)NCc2ccccc2)c1 [Example 26]
IC50 [1, 5]: 10.9 ± 0.9 µM
IC50 (MM96L melanoma cells; [6]): 2 ± 0.4 µM
Selectivity (MM96L melanoma cells; [7]): 5.5

CN(C)c1ccc(C(=O)N[C@@H](CCCCCC(=O)NO)C(=O)NCc2ccccc2)cc1 [Example 122]
IC50 [1, 11]: 12 ± 2 µM
IC50 (MM96L melanoma cells; [12]): 1.6 ± 0.3 µM
SI (Selectivity Index = IC50 (NFF)/IC50 (MM96L)) (MM96L melanoma cells): 7.8

O=C(CCCCC[C@H](NC(=O)c1cccnc1)C(=O)NCc1ccccc1)NO (racemic) [Example 134]
IC50 [1, 2]: 24 ± 8 µM
IC50 (MM96L melanoma cells; [3]): 9.5 ± 0.8 µM
SI (Selectivity Index = IC50 (NFF)/IC50 (MM96L)) (MM96L melanoma cells): 2.5

CN(C)c1ccc(C(=O)N[C@@H](CCCCCC(=O)NO)C(=O)NC2(Cc3ccccc3)CCCC2)cc1 [Example 128]
IC50 [1, 2]: 3 ± 0.3 µM
IC50 (MM96L melanoma cells; [3]): 0.9 ± 0.2 µM
SI (Selectivity Index = IC50 (NFF)/IC50 (MM96L)) (MM96L melanoma cells): 3.5

C/C=C/C(=O)N[C@@H](CSCCCC(=O)NO)C(=O)NCc1ccccc1 [Example 52]
IC50 [1, 5]: > 100 µM
IC50 (MM96L melanoma cells; [6]): 11 ± 0.7 µM
Selectivity (MM96L melanoma cells; [7]): >9

O=C(CCCCC[C@H](NC(=O)c1ccc(Br)cc1)C(=O)NCc1ccccn1)NO [Example 157]
IC50 [1, 2]: 2.09 µM
IC50 (MM96L melanoma cells; [3]): 1.15 µM
SI (Selectivity Index = IC50 (NFF)/IC50 (MM96L)) (MM96L melanoma cells): 1.8

Cc1ccnc(NC(=O)[C@H](CSCCCC(=O)NO)NC(=O)c2ccc(N(C)C)cc2)c1 [Example 79]
IC50 [1, 13]: 11.2 ± 0.7 µM
IC50 (MM96L melanoma cells; [14]): 1.12 ± 0.06 µM
Selectivity (MM96L melanoma cells; [15]): 10.0

CN(C)c1ccc(C(=O)N[C@@H](CSCCCC(=O)NO)C(=O)NCCc2ccc(Br)cc2)cc1 [Example 86]
IC50 ([1]; Table 6, 24 hours with compound, further growth, read-out: IC50 (μM) NFF): 2.6 ± 0.3 µM
IC50 (MM96L melanoma cells; Table 6, 24 hours with compound, further growth, SRB, read-out: IC50 (μM) MM96L): 1 ± 0.1 µM
Selectivity (MM96L melanoma cells; [15]): 2.6

CN(C)c1ccc(C(=O)N[C@@H](CSCCCC(=O)NO)C(=O)N2CCCCC2)cc1 [Example 91]
IC50 [1, 13]: 20 ± 2 µM
IC50 (MM96L melanoma cells; [14]): 4.9 ± 0.3 µM
Selectivity (MM96L melanoma cells; [15]): 4.2

O=C(CCCSC[C@H](NC(=O)c1ccc(-c2ccccc2)cc1)C(=O)NCc1ccccc1)NO [Example 25]
IC50 [1, 5]: 2.8 ± 0.2 µM
IC50 (MM96L melanoma cells; [6]): 0.9 ± 0.1 µM
Selectivity (MM96L melanoma cells; [7]): 3.1

CN(C)c1ccc(C(=O)N[C@@H](CSCCCC(=O)NO)C(=O)NCc2ccc(C(=O)NC3CCCC3)cc2)cc1 [Example 117]
IC50 [1, 8]: 5.27 µM
IC50 (MM96L melanoma cells; [9]): 1.19 µM
Selectivity (MM96L melanoma cells; [10]): 4.4

CC(C)=CC(=O)N[C@@H](CSCCCC(=O)NO)C(=O)NCc1ccccc1 [Example 53]
IC50 [1, 5]: 22 ± 1 µM
IC50 (MM96L melanoma cells; [6]): 11 ± 1 µM
Selectivity (MM96L melanoma cells; [7]): 2.0

COC(=O)c1ccc(NC(=O)[C@H](CSCCCC(=O)NO)NC(=O)c2ccc(N(C)C)cc2)cc1 [Example 63]
IC50 [1, 13]: 2.8 ± 0.1 µM
IC50 (MM96L melanoma cells; [14]): 0.96 ± 0.07 µM

O=C(/C=C/c1ccccc1)N[C@@H](CSCCCC(=O)NO)C(=O)NCc1ccccn1 [Example 102]
IC50 ([1]; Homo sapiens, Fibroblast, 24 h, Table 7, 24 hours with compound, further growth, read-out: IC50 (μM) NFF): 4.2 ± 0.4 µM
IC50 (MM96L melanoma cells; Homo sapiens, MM96L, 24 h, Table 7, 24 hours with compound, further growth, SRB, read-out: IC50 (μM) MM96L): 0.8 ± 0.3 µM
Selectivity (MM96L melanoma cells; Table 7, IC50 (NFF)/IC50 (MM96L)): 5.3

CN(C)c1ccc(C(=O)N[C@@H](CSCCCC(=O)NO)C(=O)Nc2cccc3ccccc23)cc1 [Example 65]
IC50 [1, 13]: 5.9 ± 0.7 µM
IC50 (MM96L melanoma cells; [14]): 1.3 ± 0.1 µM
Selectivity (MM96L melanoma cells; [15]): 4.5

CN(C)c1ccc(C(=O)N[C@@H](CSCCCC(=O)NO)C(=O)Nc2ccncc2)cc1 [Example 77]
IC50 [1, 13]: 7.2 ± 0.8 µM
IC50 (MM96L melanoma cells; [14]): 1.8 ± 0.2 µM
Selectivity (MM96L melanoma cells; [15]): 4.1

CC(C)NC(=O)c1ccc(CNC(=O)[C@H](CSCCCC(=O)NO)NC(=O)c2ccc(N(C)C)cc2)cc1 [Example 103]
IC50 [1, 8]: 10.1 µM
IC50 (MM96L melanoma cells; [9]): 1.38 µM
Selectivity (MM96L melanoma cells; [10]): 7.30

CN(C)c1ccc(C(=O)NC(CCCCCC(=O)NO)C(=O)NC2CCCc3ccccc32)cc1 (racemic) [Example 125]
IC50 [1, 11]: 1.81 ± 0.07 µM
IC50 (MM96L melanoma cells; [12]): 0.3 ± 0.1 µM
SI (Selectivity Index = IC50 (NFF)/IC50 (MM96L)) (MM96L melanoma cells): 6.0

O=C(CCCCC[C@H](NC(=O)c1ccco1)C(=O)NCc1ccccc1)NO (racemic) [Example 133]
IC50 [1, 2]: 4.6 ± 0.4 µM
IC50 (MM96L melanoma cells; [3]): 0.2 ± 0.1 µM
IC50 (MM96L melanoma cells; [4]): ≤ 0.5 µM
SI (Selectivity Index = IC50 (NFF)/IC50 (MM96L)) (MM96L melanoma cells): 23

O=C(CCCCC[C@H](NC(=O)C12CC3CC(CC(C3)C1)C2)C(=O)NCc1ccccc1)NO [Example 139]
IC50 [1, 11]: 7.13 µM
IC50 (MM96L melanoma cells; [12]): 3.95 µM
SI (Selectivity Index = IC50 (NFF)/IC50 (MM96L)) (MM96L melanoma cells): 1.8

CN(C)c1ccc(C(=O)N[C@@H](CSCCCC(=O)NO)C(=O)NCc2ccc(C(=O)NCCc3ccc(O)cc3)cc2)cc1 [Example 110]
IC50 [1, 8]: 16.1 µM
IC50 (MM96L melanoma cells; [9]): 2.98 µM
Selectivity (MM96L melanoma cells; [10]): 5.4

CN(C)c1ccc(C(=O)N[C@@H](CSCCCC(=O)NO)C(=O)NCc2ccc(C(=O)Nc3ccc(-c4ccccc4)cc3)cc2)cc1 [Example 111]
IC50 [1, 8]: 1.11 µM
IC50 (MM96L melanoma cells; [9]): 0.51 µM
Selectivity (MM96L melanoma cells; [10]): 2.2

O=C(CCCCC[C@H](NC(=O)c1cccs1)C(=O)NCc1ccccc1)NO [Example 141]
IC50 [1, 2]: 5.2 µM
IC50 (MM96L melanoma cells; [3]): 0.892 µM
SI (Selectivity Index = IC50 (NFF)/IC50 (MM96L)) (MM96L melanoma cells): 5.8

O=C(CCCSC[C@H](NC(=O)c1ccccc1C(=O)c1ccccc1)C(=O)NCc1ccccc1)NO [Example 27]
IC50 [1, 5]: 30 ± 1 µM
IC50 (MM96L melanoma cells; [6]): 24 ± 3 µM
Selectivity (MM96L melanoma cells; [7]): 1.3

O=C(CCCCC[C@H](NC(=O)c1ccc(Br)cc1)C(=O)NCc1ccncc1)NO [Example 158]
IC50 [1, 2]: 5.24 µM
IC50 (MM96L melanoma cells; [3]): 0.837 µM
SI (Selectivity Index = IC50 (NFF)/IC50 (MM96L)) (MM96L melanoma cells): 6.3
